Several values for one entry are separate records, joined by “and”; a condition that tells them apart may be missing. Identical values can stand only once.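 Compound exposure: 48 hours, 5 concentrations, 96-well plates. Here, GI50 denotes the concentration required for 50% inhibition of growth. TGI: concentration producing complete growth inhibition.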
Columns and labels:
Experiment in all cases: NCI anticancer screen, dose series, 48 h
COLO 205 colon = system: COLO 205 colon
HCT-15 colon = system: HCT-15 colon
KM12 colon = system: KM12 colon
MDA-MB-231 breast = system: MDA-MB-231 breast
MOLT-4 leukemia = system: MOLT-4 leukemia
NCI-H460 lung = system: NCI-H460 lung
NCI/ADR-RES ovarian = system: NCI/ADR-RES ovarian
OVCAR-5 ovarian = system: OVCAR-5 ovarian
RXF 393 renal = system: RXF 393 renal
SK-MEL-5 melanoma = system: SK-MEL-5 melanoma

SMILES	GI50 (COLO 205 colon)	TGI (COLO 205 colon)	GI50 (HCT-15 colon)	TGI (HCT-15 colon)	GI50 (KM12 colon)	TGI (KM12 colon)	GI50 (MDA-MB-231 breast)	TGI (MDA-MB-231 breast)	GI50 (MOLT-4 leukemia)	TGI (MOLT-4 leukemia)	GI50 (NCI-H460 lung)	TGI (NCI-H460 lung)	GI50 (NCI/ADR-RES ovarian)	TGI (NCI/ADR-RES ovarian)	GI50 (OVCAR-5 ovarian)	TGI (OVCAR-5 ovarian)	GI50 (RXF 393 renal)	TGI (RXF 393 renal)	GI50 (SK-MEL-5 melanoma)	TGI (SK-MEL-5 melanoma)
COc1cc2c(cc1OCCCN1CCN(c3cc(=O)oc4c(C)c(OC)ccc34)CC1)N=C[C@@H]1CCCN1C2=O	0.268 µM	1.43 µM	3.06 µM	> 37.6 µM	1.65 µM	9.11 µM	0.984 µM	5.99 µM	0.372 µM	3.7 µM	1.45 µM	> 26.4 µM	16.6 µM	> 88.5 µM	1.34 µM	> 100 µM	0.424 µM	1.02 µM	1.61 µM	3.83 µM
N#C[C@H]1Nc2ccccc2[C@@H](O)C1O (some centres not stated)		> 100 µM		> 100 µM		> 100 µM		> 100 µM		> 100 µM		> 100 µM		> 100 µM		> 100 µM		> 100 µM		> 100 µM
CC(C)=CC1CC(C)C2(CCC3(C)CC4C(C(=O)CC4(C)O)/C(C=O)=C\CC32)O1 (configuration not stated)		0.153 µM		0.105 µM		0.262 µM		0.237 µM		0.0483 µM		0.283 µM		0.443 µM		0.33 µM		0.098 µM		0.588 µM
C[C@@H]1COC(Nc2ccc3ncnc(Nc4ccc(OCc5nccs5)c(Cl)c4)c3c2)=N1	3.79 µM and 4.86 µM	> 10 µM and 17.1 µM	4.07 µM and 5.32 µM	> 10 µM and 25.6 µM	4.38 µM and 4.14 µM	> 10 µM and 33.8 µM	6.04 µM and 8.22 µM	> 10 µM and 27.2 µM	3.38 µM and 2.87 µM	> 10 µM and 8.72 µM	8.17 µM and 8.76 µM	> 10 µM and 26.5 µM	2.6 µM and 2.64 µM	> 10 µM and 12 µM	> 10 µM and 11.9 µM	> 10 µM and 33.3 µM	> 10 µM and 6.81 µM	> 10 µM and 20.7 µM	2.21 µM and 2.98 µM	6.42 µM and 10.6 µM
COc1ccc2c(c1)[C@@]1(C)CCC3c4ccc(O)cc4CCC3C1C2 (some centres not stated)	14.7 µM	31 µM	12.3 µM	28 µM	15.4 µM	36.8 µM	13.8 µM	27.8 µM	17.8 µM	64.2 µM	9.02 µM	23.2 µM	14.4 µM	29.3 µM	19 µM	33.1 µM	10.5 µM	34.5 µM	17 µM	33.1 µM
O=[N+]([O-])c1ccc(N=Nc2c(O)[nH]c3ccccc23)cc1		> 100 µM		> 100 µM		> 100 µM		> 58.9 µM		> 100 µM		> 100 µM		48.5 µM		> 63.1 µM		35.4 µM		> 77.3 µM
Oc1cc(Cl)ccc1Cc1ccc(Cl)cc1O	16.9 µM	30.6 µM	8.09 µM	20.3 µM	14.8 µM	28.1 µM	11.6 µM	36.3 µM	9.24 µM	> 100 µM	7 µM	19.4 µM	8.63 µM	25.4 µM	15.1 µM	31.8 µM	12.8 µM	28.4 µM	4.48 µM	15.8 µM
O=C1OCC2=C1C(c1cccc(C(F)(F)F)c1)c1cc3c(cc1N2CCO)CCC3 (configuration not stated)	0.163 µM	1.59 µM	0.15 µM	6.02 µM	0.157 µM	6.37 µM	0.223 µM	6.76 µM	0.27 µM	15.5 µM	0.167 µM	5.4 µM	0.153 µM	6.82 µM	0.265 µM	8.97 µM	0.145 µM	8.38 µM	0.156 µM	2.18 µM
COc1cc2ncn(-c3cc(OCc4ccccc4S(C)(=O)=O)c(C#N)s3)c2cc1OC	> 25 µM	> 25 µM	> 25 µM	> 25 µM	> 25 µM	> 25 µM	> 25 µM	> 25 µM	> 25 µM	> 25 µM	> 25 µM	> 25 µM	> 25 µM	> 25 µM	> 25 µM	> 25 µM	> 14.9 µM	> 25 µM	> 25 µM	> 25 µM
Cc1ccc(/C(=C/C=C(C#N)C#N)Sc2ccccn2)cc1	1.72 µM	3.79 µM	4.09 µM	15.8 µM	3.33 µM	20.2 µM	2.3 µM	7.45 µM	2.01 µM	6.32 µM	4.62 µM	21 µM	4.63 µM	13.2 µM	4.13 µM	13.9 µM	15.6 µM	> 28.1 µM	2.51 µM	7.55 µM
Oc1ccc(CN(Cc2ccc(C(F)(F)F)cc2)Cc2ccc(O)c3ncccc23)c2cccnc12	0.091 µM	> 100 µM	0.024 µM	> 100 µM	0.0415 µM	> 100 µM	0.0566 µM	> 100 µM	0.0818 µM	> 100 µM	< 0.01 µM	0.111 µM	< 0.01 µM	> 100 µM	0.0736 µM	> 100 µM	0.0485 µM		0.0278 µM	0.16 µM
COc1cc(-c2n/c(=C\c3c(O)[nH]c4ccccc34)cc3c2=Nc2ccccc2-3)cc(OC)c1OC	1.55 µM	6.7 µM	1.72 µM	> 100 µM	2.03 µM	16.4 µM	2.11 µM	> 28.2 µM	0.528 µM	7.34 µM	0.334 µM	1.76 µM	1.62 µM	> 31.5 µM	4.32 µM	> 100 µM	0.436 µM	5.34 µM	0.289 µM	2.88 µM
COc1ccc2c(c1)C(=O)c1c-2n(CCCN2CCOCC2)c(=O)c2cc([N+](=O)[O-])ccc12	< 0.0111 µM	> 45.4 µM	< 0.0151 µM	13.3 µM	< 0.01 µM	0.544 µM	0.661 µM	17.3 µM	< 0.01 µM		< 0.01 µM	0.069 µM	< 0.01 µM	< 0.0279 µM	< 0.01 µM	0.889 µM	< 0.01 µM		< 0.01 µM	< 0.01 µM
COc1ccc(C(=O)CC(c2ccc(OC)c(OC)c2)c2c(O)c3ccccc3oc2=O)cc1OC (configuration not stated)		> 100 µM		> 100 µM		> 100 µM		> 100 µM		> 100 µM		> 100 µM		> 100 µM		> 100 µM		> 100 µM		> 100 µM

Source: PubChem BioAssay (NCI)
